The values that follow are results of earlier work, collected in patent US20090304869A1, “Peptides Having an Ace Inhibiting Effect” (priority 2005, published 2009).

The conditions of data set [1]: in sour milk, hypertensive humans.
In a further data set the target is ACE (Homo sapiens, UniProt P12821). Particulars: peptides in fermented milk products.
Sequence of ACE (P12821 30-1306, species assumed): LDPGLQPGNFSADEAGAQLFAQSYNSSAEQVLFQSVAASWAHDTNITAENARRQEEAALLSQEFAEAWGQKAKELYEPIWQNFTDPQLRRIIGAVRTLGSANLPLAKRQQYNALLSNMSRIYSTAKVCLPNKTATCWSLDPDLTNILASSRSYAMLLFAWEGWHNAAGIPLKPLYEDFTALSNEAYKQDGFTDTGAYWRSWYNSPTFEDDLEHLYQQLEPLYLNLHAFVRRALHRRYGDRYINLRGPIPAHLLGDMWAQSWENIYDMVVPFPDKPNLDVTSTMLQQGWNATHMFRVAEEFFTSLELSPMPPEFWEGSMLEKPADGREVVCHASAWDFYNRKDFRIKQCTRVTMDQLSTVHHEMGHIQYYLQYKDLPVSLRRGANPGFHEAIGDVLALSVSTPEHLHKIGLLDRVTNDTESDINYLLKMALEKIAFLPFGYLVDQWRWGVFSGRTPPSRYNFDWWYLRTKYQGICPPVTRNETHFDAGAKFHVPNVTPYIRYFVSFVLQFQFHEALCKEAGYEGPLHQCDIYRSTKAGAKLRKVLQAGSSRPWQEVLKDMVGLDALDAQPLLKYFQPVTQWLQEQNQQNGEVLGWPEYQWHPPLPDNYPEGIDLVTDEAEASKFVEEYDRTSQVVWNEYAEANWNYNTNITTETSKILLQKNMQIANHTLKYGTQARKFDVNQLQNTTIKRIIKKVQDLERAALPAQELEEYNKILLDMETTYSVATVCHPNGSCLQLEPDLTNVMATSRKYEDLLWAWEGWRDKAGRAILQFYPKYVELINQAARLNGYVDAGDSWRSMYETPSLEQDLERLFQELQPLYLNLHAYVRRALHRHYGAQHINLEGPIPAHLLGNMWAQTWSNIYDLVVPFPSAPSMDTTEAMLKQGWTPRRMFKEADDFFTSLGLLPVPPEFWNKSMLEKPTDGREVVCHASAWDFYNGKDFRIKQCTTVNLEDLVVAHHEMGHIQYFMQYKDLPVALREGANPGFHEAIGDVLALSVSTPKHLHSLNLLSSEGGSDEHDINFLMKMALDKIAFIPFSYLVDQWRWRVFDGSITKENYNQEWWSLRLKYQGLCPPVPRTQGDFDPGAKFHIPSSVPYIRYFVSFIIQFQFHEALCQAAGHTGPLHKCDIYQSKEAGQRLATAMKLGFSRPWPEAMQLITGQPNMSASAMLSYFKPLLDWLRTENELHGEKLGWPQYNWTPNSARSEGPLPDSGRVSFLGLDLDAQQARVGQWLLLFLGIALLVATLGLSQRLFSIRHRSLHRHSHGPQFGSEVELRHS

With `CC[C@H](C)[C@H](N)C(=O)N1CCC[C@H]1C(=O)N1CCC[C@H]1C(=O)O` [IPP], the “blood pressure lowering effect” value in data set [1] is given as “blood pressure lowering effect”. Also, at ACE, the “in vitro ACE inhibition” value was “showed in vitro ACE inhibition”.
